Target: T1, RORγ (Homo sapiens, UniProt P51449)
T1 construct: expressed in transfected cells; host or cells: HEK 293 cells, transiently transfected
T1 sequence (P51449 269-508 limits assumed): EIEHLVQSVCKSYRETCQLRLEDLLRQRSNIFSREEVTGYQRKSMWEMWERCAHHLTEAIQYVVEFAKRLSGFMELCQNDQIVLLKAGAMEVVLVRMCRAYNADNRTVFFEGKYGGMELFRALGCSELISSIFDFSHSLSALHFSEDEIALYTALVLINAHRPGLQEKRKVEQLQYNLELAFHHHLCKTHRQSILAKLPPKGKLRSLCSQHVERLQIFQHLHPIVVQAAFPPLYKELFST
Test: Reporter Gene Assay (RGA): inhibition of RORγ transactivation of a luciferase reporter in transiently transfected HEK 293 cells
Assay type: cell-based
Conditions: HEK 293 cells cotransfected with pGL4.3 luc2P/GAL4UAS and pBIND Gal4DBD hRORC LBD; 20-24 h incubation; luciferase luminescence
Protocol: Reporter Gene Assay (RGA)
A nuclear receptor transactivation assay is performed to quantitate the ability of test compounds to inhibit RORγ transactivation of a luciferase reporter. A similar assay is described in: Khan et al., Bioorganic & Medicinal Chemistry Letters 23 (2013), 532-536. The system uses transiently transfected HEK 293 cells cotransfected with two plasmids (pGL4.3, luc2P/GAL4UAS/Hygro, and pBIND, Gal4DBD hRORC LBD1-3). The positive control is co-transiently transfected with both plasmids, and the negative control contains the pGL4.3 promoter sequence. Assays are assembled in 384 well plates where transiently transfected cells and test compound at varying concentrations are incubated for 20-24 h. The next day, assays plates are taken out and equilibrated at RT for 20-30 minutes. Bright-Glo™ Luciferase Assay System is used to detect Luciferase production. After addition of Bright GLO detection reagent, the plates are incubated at RT for 20 minutes. The plates are read on an Envision plate reader to measure luminescence signal. The RLU signal is converted to POC relative to control and blank wells.
Compound dilution buffer:
Bright Glo Luciferase Assay System: Promega #E2620
Thaw lysis buffer provided in kit, add 100 mL lysis buffer to substrate powder.

SMILES | IC50 [nM]
CCS(=O)(=O)c1ccc(CNC(=O)N2CC(C(C)C)C3(C2)Oc2c(C(C)C)ccc(C)c2C3=O)nc1 (stereo not drawn) [Example 11] | 620
CCS(=O)(=O)c1ccc(CNC(=O)N2CC(c3cccc(C4CC4)c3)C(c3cc(C4CC4)nn3C(C)C)C2)nc1 (stereo not drawn) [Example 52] | 1480
CCS(=O)(=O)c1ccc(CNC(=O)N2CC(c3cccc(Cl)c3)C(c3cccc4cnccc34)C2)cc1 (stereo not drawn) [Example 32] | 1200
CCS(=O)(=O)c1ccc(CNC(=O)N2CC(c3cccc(C4CC4)n3)C(c3cc(C4CC4)nn3C(C)C)C2)nc1 (stereo not drawn) [Example 53] | 1550
CCS(=O)(=O)c1ccc(CNC(=O)N2CC(c3ccccc3)C(c3ccccc3OC(F)(F)F)C2)nc1 (stereo not drawn) [Example 29] | 830
CCS(=O)(=O)c1ccc(CNC(=O)N2CC(c3ccccc3)C3(C2)Oc2c(C(C)C)ccc(C)c2C3=O)nc1 (stereo not drawn) [Example 45] | 260
CCS(=O)(=O)c1ccc(CNC(=O)N2CC(c3ccccc3)C3(C2)Oc2c(C(C)C)ccc(C)c2C3=O)cc1 (stereo not drawn) [Example 43] | 149
CCS(=O)(=O)c1ccc(CNC(=O)N2CC(c3ccccc3)C(c3cc(C4CC4)nn3C(C)C)C2)nc1 (stereo not drawn) [Example 18] | 2500
CCS(=O)(=O)c1ccc(CNC(=O)N2CC(c3ccccc3)C(c3cc(C4CC4)nn3CC3CC3)C2)cc1 (stereo not drawn) [Example 28] | 1060
CCS(=O)(=O)c1ccc(CNC(=O)N2CC(c3ccccc3)C(c3cc(C4CC4)nn3CC3CC3)C2)nc1 (stereo not drawn) [Example 31] | 2200
CCS(=O)(=O)c1cnc(CNC(=O)N2CC(c3cccc(C4CC4)n3)C(c3cc(C4CC4)nn3C(C)C)C2)nc1 (stereo not drawn) [Example 54] | 5200
CCS(=O)(=O)c1ccc(CNC(=O)N2CC(c3cccc(Cl)c3)C(c3ccccc3C(F)(F)F)C2)nc1 (stereo not drawn) [Example 47] | 1400
CCS(=O)(=O)c1ccc(CNC(=O)N2CC(C(C)C)C3(C2)Oc2c(C(C)C)ccc(C)c2C3=O)cc1 (stereo not drawn) [Example 10] | 275
CCS(=O)(=O)c1ccc(CNC(=O)N2CC(c3ccccc3)C(c3nn(C(C)C)nc3C3CC3)C2)nc1 (stereo not drawn) [Example 23] | 6200
CCS(=O)(=O)c1ccc(CNC(=O)N2CC(c3ccccc3)C(c3ccccc3)C2)cn1 (stereo not drawn) [Example 3] | 7900
CCS(=O)(=O)c1ccc(CNC(=O)N2CC(c3ccccc3)C(c3cccc(OC(F)(F)F)c3)C2)cc1 (stereo not drawn) [Example 27] | 2400
CCS(=O)(=O)c1ccc(CNC(=O)N2CC(c3cccc(Cl)c3)C(c3nc(C4CC4)cs3)C2)cc1 (stereo not drawn) [Example 25] | 4900
CCS(=O)(=O)c1cnc(CNC(=O)N2CC(c3ccccc3)C(c3cc(C4CC4)nn3C(C)C)C2)nc1 (stereo not drawn) [Example 24] | 13000
CCS(=O)(=O)c1ccc(CNC(=O)N2CC(c3cc(C)cc(C)n3)C(c3cc(C4CC4)nn3C(C)C)C2)nc1 (stereo not drawn) [Example 46] | 3200
CCS(=O)(=O)c1ccc(CNC(=O)N2CC(c3ccccc3)C(c3ccccc3)C2)nc1 (stereo not drawn) [Example 2] | 5000
CCS(=O)(=O)c1ccc(CNC(=O)N2CC(c3ccccc3)C(c3cc(C4CC4)nn3C(C)C)C2)cn1 (stereo not drawn) [Example 20] | 5500
CCS(=O)(=O)c1ccc(CNC(=O)N2CC(c3ccccc3)C(c3cccc(OC(F)(F)F)c3)C2)nc1 (stereo not drawn) [Example 30] | 5200
CCS(=O)(=O)c1ccc(CNC(=O)N2CC(c3cccc(Cl)c3)C(c3nc(C(C)C)no3)C2)cc1 (stereo not drawn) [Example 13] | 19000
CCS(=O)(=O)c1ccc(CNC(=O)N2CC(c3ccccc3)C(c3ccnn3-c3ccccc3)C2)cc1 (stereo not drawn) [Example 12] | 2100
CCS(=O)(=O)c1ccc(CNC(=O)N2CC(c3cccc(Cl)c3)C(c3cc(C4CC4)nn3C(C)C)C2)cc1 (stereo not drawn) [Example 48] | 775
CNS(=O)(=O)c1ccc(CNC(=O)N2CC(c3ccccc3)C(c3cc(C4CC4)nn3C(C)C)C2)cc1 (stereo not drawn) [Example 17] | 2300
CCS(=O)(=O)c1ccc(CNC(=O)N2CC(c3cccc(Cl)c3)C(c3nc(C4CC4)nn3C(C)C)C2)nc1 (stereo not drawn) [Example 49] | 1750

Results, then the molecule that gave them:

IC50 [nM] | SMILES
1900 | CCS(=O)(=O)c1ccc(CNC(=O)N2CC(c3ccccc3)C(c3cn(C4CC4)nc3C(C)(C)C)C2)nc1 (stereo not drawn) [Example 35]
3900 | CCS(=O)(=O)c1ccc(CNC(=O)N2CC(c3ccccc3)C(c3cc(C)nn3C)C2)cc1 (stereo not drawn) [Example 4]
1300 | CCS(=O)(=O)c1ccc(CNC(=O)N2CC(c3ccccc3)C(c3cn(C(C)C)nc3C(C)(C)C)C2)nc1 (stereo not drawn) [Example 40]
2600 | CCS(=O)(=O)c1ccc(CNC(=O)N2CC(c3ccccc3)C(c3cc(C4CC4)nn3C)C2)cc1 (stereo not drawn) [Example 6]
1750 | CCn1nc(C2CC2)cc1C1CN(C(=O)NCc2ccc(S(=O)(=O)CC)cc2)CC1c1ccccc1 (stereo not drawn) [Example 8]
2400 | CCS(=O)(=O)c1ccc(CNC(=O)N2CC(c3ccccc3)C(c3ccccc3)C2)cc1 (stereo not drawn) [Example 1]
1050 | CCS(=O)(=O)c1ccc(CNC(=O)N2CC(c3cccc(C4CC4)n3)C(c3cn(C(C)C)nc3C(C)(C)C)C2)cc1 (stereo not drawn) [Example 57]
1150 | CCS(=O)(=O)c1ccc(CNC(=O)N2CC(c3ccccc3)C(c3cc(C(F)(F)F)cnc3OC)C2)cc1 (stereo not drawn) [Example 44]
8700 | CCS(=O)(=O)c1ccc(CNC(=O)N2CC(c3ccccc3)C(c3nc(C4CC4)nn3C(C)C)C2)cc1 (stereo not drawn) [Example 22]
625 | CCS(=O)(=O)c1ccc(CNC(=O)N2CC(c3ccccc3)C(c3cc(C4CC4)nn3C(C)C)C2)cc1 (stereo not drawn) [Example 16A]
440 | CCS(=O)(=O)c1ccc(CNC(=O)N2CC(c3ccccc3)C(c3cn(C(C)C)nc3C(C)(C)C)C2)cc1 (stereo not drawn) [Example 37]
1000 | CCS(=O)(=O)c1ccc(CNC(=O)N2CC(c3ccccc3)C(c3ncccc3C(F)(F)F)C2)cc1 (stereo not drawn) [Example 14]
2600 | CCS(=O)(=O)c1ccc(CNC(=O)N2CC(c3ccccc3)C(c3nc(C4CC4)nn3C(C)(C)C)C2)cc1 (stereo not drawn) [Example 36]
865 | CCS(=O)(=O)c1ccc(CNC(=O)N2CC(c3cccc(C4CC4)n3)C(c3cn(C4CC4)nc3C(C)(C)C)C2)cc1 (stereo not drawn) [Example 56]
1020 | CCS(=O)(=O)c1ccc(CNC(=O)N2CC(c3ccccc3)C(c3csc4ccccc34)C2)cc1 (stereo not drawn) [Example 7]
565 | CCS(=O)(=O)c1ccc(CNC(=O)N2CC(c3ccccc3)C(c3cc(C)nn3C3CCCC3)C2)cc1 (stereo not drawn) [Example 15]
7400 | CCS(=O)(=O)c1ccc(CNC(=O)N2CC(c3ccccc3)C(c3nc(C(C)C)nn3C3CC3)C2)cc1 (stereo not drawn) [Example 21]
965 | CNS(=O)(=O)c1ccc(CNC(=O)N2CC(c3ccccc3)C(c3cn(C(C)C)nc3C(C)(C)C)C2)cc1 (stereo not drawn) [Example 39]
1550 | CCS(=O)(=O)c1ccc(CNC(=O)N2CC(c3ccccc3)C(c3cn(C)nc3C(C)(C)C)C2)cc1 (stereo not drawn) [Example 9]
925 | CCS(=O)(=O)c1ccc(CNC(=O)N2C[C@H](c3ccccc3)[C@@H](c3cc(C4CC4)nn3C(C)C)C2)cc1 [Example 16B]
1450 | CCS(=O)(=O)c1ccc(CNC(=O)N2CC(c3ccccc3)C(c3cc(C(C)(C)C)nn3C(C)C)C2)nc1 (stereo not drawn) [Example 41]
780 | CCS(=O)(=O)c1ccc(CNC(=O)N2CC(c3ccccc3)C(c3cc(C(C)(C)C)nn3C(C)C)C2)cc1 (stereo not drawn) [Example 38]
1300 | CNS(=O)(=O)c1ccc(CNC(=O)N2CC(c3ccccc3)C(c3cn(C4CC4)nc3C(C)(C)C)C2)cc1 (stereo not drawn) [Example 34]
510 | CCS(=O)(=O)c1ccc(CNC(=O)N2CC(c3ccccc3)C(c3cn(C4CC4)nc3C(C)(C)C)C2)cc1 (stereo not drawn) [Example 33]
850 | CCS(=O)(=O)c1ccc(CNC(=O)N2CC(c3ccccc3)C(c3ccccc3OC(F)(F)F)C2)cc1 (stereo not drawn) [Example 26]
1250 | CCS(=O)(=O)c1ccc(CNC(=O)N2C[C@@H](c3ccccc3)[C@H](c3cc(C4CC4)nn3C(C)C)C2)cc1 [Example 16C]
1500 | CCS(=O)(=O)c1ccc(CNC(=O)N2CC(c3ccccc3)C(c3cc(C(F)(F)F)cn(C(C)C)c3=O)C2)cc1 (stereo not drawn) [Example 55]
2800 | CCS(=O)(=O)c1ccc(CNC(=O)N2CC(c3ccccc3)C(c3ncccc3C3CC3)C2)cc1 (stereo not drawn) [Example 5]
4100 | CCS(=O)(=O)c1ccc(CNC(=O)N2CC(c3ccccc3)C(c3nn(C(C)C)nc3C3CC3)C2)cc1 (stereo not drawn) [Example 19]
1950 | CCS(=O)(=O)c1ccc(CNC(=O)N2CC(c3ccccc3)C(c3nc(C(C)C)nn3C(C)(C)C)C2)cc1 (stereo not drawn) [Example 42]

Reference: US10954215B2, “Compounds as modulators of ROR gamma” (Boehringer Ingelheim International GmbH, priority 2016, dated 2021)
